# Assay results taken from patent US6689395B2, “Pesticidal compositions containing plant essential oils against mites” (priority 1999, dated 2004).
# Test system: mold mite
# Assay: Toxicity of plant essential oils fogged into food cartons against mold mites
# Type: in vivo
# Conditions: for control of the mites (pest mortality): about 1 g test substance fogged into half pint milk carton, about 100 mites per carton, cartons opened at 24 hour intervals, from day one; for control of the mites (mortality): repeated experiment, cartons not opened until day ten
# Description: Half pint milk cartons were used as sample food containers. The composition of the carton is multilayer paper, plastic and foil. The last two inner layers are foil and plastic; the food inside the carton is in contact with the plastic. Utilizing a ULV sprayer, the plant essential oils were fogged into the container. Approximately one gram of liquid test substance (i.e. plant essential oil) was deposited into the container. The desired amount of food and approximately 100 mites per carton were then added to the container and the carton was sealed. The materials tested included 2-phenyl ethyl alcohol, 2-phenyl ethyl propionate, trans-anethole, and benzyl alcohol. The cartons were opened at 24 hour intervals, a new carton each interval, to observe for pest mortality and the results were recorded.
# The experiment was repeated, but the cartons were not opened until day ten.
Structure (SMILES),control of the mites (pest mortality),control of the mites (mortality)
OCCc1ccccc1 [2-phenyl ethyl alcohol],good control,best results of mortality
CCC(=O)OCCc1ccccc1 [2-phenyl ethyl propionate],good control,best results of mortality
